# Laboratory results taken from patent publication US20130196984A1, “3-AMINO-5-PHENYL-56-DIHYDRO-2H-[1,4]OXAZINES” (Siena Biotech S.p.A., priority 2009, published 2013).
# Structures can show the parent of a compound that is named as a salt.
# Legend:
# [1] = target: T1, BACE2 (Homo sapiens, UniProt Q9Y5Z0); test: Assay A: binding studies using SPR based methods, immobilised BACE2; conditions: CM5 chip, immobilised BACE2 enzyme ectodomain, acetate buffer pH 4.6, 4% DMSO
# T1 construct: BACE2 enzyme ectodomain (derived from plasmid “pET17b-T7-hu proBACE2”); T7 (N); made in house
# T1 sequence (Q9Y5Z0 63-473 limits assumed): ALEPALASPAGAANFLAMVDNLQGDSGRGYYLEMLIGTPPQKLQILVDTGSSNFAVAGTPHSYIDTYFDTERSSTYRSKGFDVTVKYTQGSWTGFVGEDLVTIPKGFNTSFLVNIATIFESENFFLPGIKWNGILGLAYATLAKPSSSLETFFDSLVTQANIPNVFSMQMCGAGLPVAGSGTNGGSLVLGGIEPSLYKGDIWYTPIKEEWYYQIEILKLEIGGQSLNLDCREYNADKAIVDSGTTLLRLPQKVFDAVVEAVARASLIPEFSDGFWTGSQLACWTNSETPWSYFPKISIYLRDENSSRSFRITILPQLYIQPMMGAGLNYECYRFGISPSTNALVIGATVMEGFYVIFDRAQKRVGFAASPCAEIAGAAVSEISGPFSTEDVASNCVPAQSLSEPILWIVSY
# [2] = target: T2, BACE1 (Homo sapiens, UniProt P56817); test: Assay A: binding studies using SPR based methods, immobilised BACE1; design: 6his-tagged full length BACE 1 expressed in SF9 cells; 6His; made in house; host or cells: SF9 insect cells; conditions: CM5 chip, immobilised 6his-tagged full length BACE 1, acetate buffer pH 4.6, 4% DMSO;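 also: KD from a 1:1 kinetic fit (koff/kon) of real-time association and dissociation curves, or for fast binders from end-of-association equilibrium responses plotted against log concentration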
# T2 sequence (P56817 46-501): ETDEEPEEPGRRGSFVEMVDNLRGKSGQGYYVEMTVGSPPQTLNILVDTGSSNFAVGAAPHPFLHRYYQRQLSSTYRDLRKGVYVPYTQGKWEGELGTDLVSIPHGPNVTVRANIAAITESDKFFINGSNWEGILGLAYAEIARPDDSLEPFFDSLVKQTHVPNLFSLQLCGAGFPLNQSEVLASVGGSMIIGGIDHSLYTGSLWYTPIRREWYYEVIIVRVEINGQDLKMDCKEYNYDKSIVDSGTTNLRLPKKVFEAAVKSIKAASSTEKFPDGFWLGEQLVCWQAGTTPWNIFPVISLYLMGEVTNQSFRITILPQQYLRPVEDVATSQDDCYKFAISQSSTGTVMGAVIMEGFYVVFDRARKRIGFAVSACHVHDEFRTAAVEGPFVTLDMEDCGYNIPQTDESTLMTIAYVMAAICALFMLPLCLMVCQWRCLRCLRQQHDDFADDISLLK
# [3] = target: T2, BACE1; test: Cellular Abeta-lowering assay; assay type: cell-based; design: endogenous in cells; host or cells: HEK293 stably transfected with human APP695 wt; conditions: HEK293 cells stably transfected with human APP wt (APP695), Aβ40 ELISA of supernatant after 18-20 hrs
SMILES,Kd [1],Kd [2],IC50 [3]
"CCC(C)c1cc(Cl)cnc1C(=O)Nc1ccc(F)c([C@]2(C)COCC(N)=N2)c1 (mixture of isomers) [Example 71, 3-((RS)-sec-butyl)-5-chloro-pyridine-2-carboxylic acid [3-((R)-5-amino-3-methyl-3,6-dihydro-2H-[1,4]oxazin-3-yl)-4-fluoro-phenyl]-amide hydrochloride]",6 µM,1.5 µM,
"C[C@@]1(c2cc(NC(=O)C(CC3CCCO3)C(F)(F)F)ccc2F)COCC(N)=N1 (mixture of isomers) [Example 85, (RS)—N-[3-((R)-5-amino-3-methyl-3,6-dihydro-2H-[1,4]oxazin-3-yl)-4-fluoro-phenyl]-3,3,3-trifluoro-2-[(RS)-1-(tetrahydro-furan-2-yl)methyl]-propionamide formate]",6.9 µM,> 10 µM,
"C[C@@]1(c2cc(NC(=O)C3CCOC3)ccc2F)COCC(N)=N1 (mixture of isomers) [Example 96, (RS)-tetrahydro-furan-3-carboxylic acid [3-((R)-5-amino-3-methyl-3,6-dihydro-2H-[1,4]oxazin-3-yl)-4-fluoro-phenyl]-amide formate]",6.1 µM,> 10 µM,
"CC1(c2cccc(NC(=O)c3ccc(Cl)cc3F)c2)COCC(N)=N1 (racemic) [Example 3, (RS)—N-[3-(5-amino-3-methyl-3,6-dihydro-2H-[1,4]oxazin-3-yl)-phenyl]-4-chloro-2-fluoro-benzamide]",0.58 µM,1.68 µM,
"CC1(c2cccc(NC(=O)c3cc(F)ccc3F)c2)COCC(N)=N1 (racemic) [Example 5, (RS)—N-[3-(5-amino-3-methyl-3,6-dihydro-2H-[1,4]oxazin-3-yl)-phenyl]-2,5-difluoro-benzamide]",5.3 µM,62.5 µM,
"Cc1nc(C(=O)Nc2cccc(C3(C)COCC(N)=N3)c2)cs1 (racemic) [Example 10, (RS)-2-methyl-thiazole-4-carboxylic acid [3-(5-amino-3-methyl-3,6-dihydro-2H-[1,4]oxazin-3-yl)-phenyl]-amide]",0.361 µM,3.3 µM,
"Cc1nc(C(=O)Nc2cccc(C3(C)COCC(N)=N3)c2)c(C)o1 (racemic) [Example 11, (RS)-2,5-dimethyl-oxazole-4-carboxylic acid [3-(5-amino-3-methyl-3,6-dihydro-2H-[1,4]oxazin-3-yl)-phenyl]-amide]",0.044 µM,0.49 µM,0.041 µM
"CC1(c2cccc(NC(=O)c3ccn(CC(F)(F)F)n3)c2)COCC(N)=N1 (racemic) [Example 14, (RS)-1-(2,2,2-trifluoro-ethyl)-1H-pyrazole-3-carboxylic acid [3-(5-amino-3-methyl-3,6-dihydro-2H-[1,4]oxazin-3-yl)-phenyl]-amide]",5.4 µM,33 µM,
"Cn1nc(C(=O)Nc2cccc(C3(C)COCC(N)=N3)c2)c2ccccc21 (racemic) [Example 15, (RS)-1-methyl-1H-indazole-3-carboxylic acid [3-(5-amino-3-methyl-3,6-dihydro-2H-[1,4]oxazin-3-yl)-phenyl]-amide]",6.7 µM,20.1 µM,
"CC1(c2cccc(NC(=O)c3cc4ccccn4n3)c2)COCC(N)=N1 (racemic) [Example 16, (RS)-Pyrazolo[1,5-a]pyridine-2-carboxylic acid [3-(5-amino-3-methyl-3,6-dihydro-2H-[1,4]oxazin-3-yl)-phenyl]-amide]",0.513 µM,1.41 µM,
"NC1=NC(c2cc(NC(=O)c3ccc(OCC(F)(F)F)cn3)ccc2F)(C2CC2)COC1 (racemic) [Example 23, (RS)-5-(2,2,2-Trifluoro-ethoxy)-pyridine-2-carboxylic acid [3-(5-amino-3-cyclopropyl-3,6-dihydro-2H-[1,4]oxazin-3-yl)-4-fluoro-phenyl]-amide]",10.8 µM,0.309 µM,0.16 µM
"CC1(c2cccc(NC(=O)c3ccc(OCC(F)(F)F)cn3)c2)COCC(N)=N1 (racemic) [Example 24, (RS)-5-(2,2,2-Trifluoro-ethoxy)-pyridine-2-carboxylic acid [3-(5-amino-3-methyl-3,6-dihydro-2H-[1,4]oxazin-3-yl)-phenyl]-amide hydrochloride]",5.75 µM,1.88 µM,0.12 µM
"CC1(c2cccc(NC(=O)c3cnccn3)c2)COCC(N)=N1 (racemic) [Example 25, (RS)-Pyrazine-2-carboxylic acid [3-(5-amino-3-methyl-3,6-dihydro-2H-[1,4]oxazin-3-yl)phenyl]-amide hydrochloride]",1.22 µM,4.17 µM,0.41 µM
"CCCCc1ccc(C(=O)Nc2cccc(C3(C)COCC(N)=N3)c2)nc1 (racemic) [Example 32, 5-butyl-pyridine-2-carboxylic acid [3-((RS)-5-amino-3-methyl-3,6-dihydro-2H-[1,4]oxazin-3-yl)-phenyl]-amide hydrochloride]",20 µM,4.2 µM,0.67 µM
"CC1(c2cccc(NC(=O)c3ncc(Cl)cc3F)c2)COCC(N)=N1 (racemic) [Example 68, hydrochloride]",,,0.01 µM
"CC1(c2cccc(NC(=O)c3ccc(C#N)cn3)c2)COCC(N)=N1 (racemic) [Example 69, 5-cyano-pyridine-2-carboxylic acid [3-((RS)-5-amino-3-methyl-3,6-dihydro-2H-[1,4]oxazin-3-yl)-phenyl]-amide hydrochloride]",,,0.009 µM
"CC1(c2cc(NC(=O)CC(F)(F)F)ccc2F)COCC(N)=N1 (racemic) [Example 79, (RS)—N-[3-(5-Amino-3-methyl-3,6-dihydro-2H-[1,4]oxazin-3-yl)-4-fluoro-phenyl]-3,3,3-trifluoro-propionamide]",4.9 µM,4 µM,
"C[C@@]1(c2cc(NC(=O)c3ccc(Cl)cn3)ccc2F)CO[C@H](c2ccccc2)C(N)=N1 [Example 30, 5-Chloro-pyridine-2-carboxylic acid [3-((3R,6R)-5-amino-3-methyl-6-phenyl-3,6-dihydro-2H-[1,4]oxazin-3-yl)-4-fluoro-phenyl]-amide]",,,0.023 µM
"C[C@@]1(c2cc(NC(=O)c3ccc(Cl)cn3)ccc2F)CO[C@@H](c2ccccc2)C(N)=N1 [Example 31, 5-Chloro-pyridine-2-carboxylic acid [3-((3R,6S)-5-amino-3-methyl-6-phenyl-3,6-dihydro-2H-[1,4]oxazin-3-yl)-4-fluoro-phenyl]-amide]",,,0.023 µM
"CC1(C)OCC(N)=N[C@]1(C)c1cc(NC(=O)C2CC2)ccc1F [Example 54, cyclopropanecarboxylic acid [3-((R)-5-amino-2,2,3-trimethyl-3,6-dihydro-2H-[1,4]oxazin-3-yl)-4-fluoro-phenyl]-amide]",6.1 µM,> 10 µM,
"C[C@@]1(c2cc(NC(=O)C3CC(Cl)C3)ccc2F)COCC(N)=N1 (stereo partly drawn) [Example 58, 3-chloro-cyclobutanecarboxylic acid [3-((R)-5-amino-3-methyl-3,6-dihydro-2H-[1,4]oxazin-3-yl)-4-fluoro-phenyl]-amide]",3.6 µM,> 10 µM,
"C[C@@]1(c2cc(NC(=O)C3CC(F)(F)C3)ccc2F)COCC(N)=N1 [Example 59, 3,3-difluoro-cyclobutanecarboxylic acid [3-((R)-5-amino-3-methyl-3,6-dihydro-2H-[1,4]oxazin-3-yl)-4-fluoro-phenyl]-amide]",4 µM,9.6 µM,
"C[C@@]1(c2cc(NC(=O)c3ncc(C#N)cc3Cl)ccc2F)COCC(N)=N1 [Example 67, 3-Chloro-5-cyano-pyridine-2-carboxylic acid [3-((R)-5-amino-3-methyl-3,6-dihydro-2H-[1,4]oxazin-3-yl)-4-fluoro-phenyl]-amide hydrochloride]",0.015 µM,0.011 µM,
"CCc1cc(Cl)cnc1C(=O)Nc1ccc(F)c([C@]2(C)COCC(N)=N2)c1 [Example 70, 5-chloro-3-ethyl-pyridine-2-carboxylic acid [3-((R)-5-amino-3-methyl-3,6-dihydro-2H-[1,4]oxazin-3-yl)-4-fluoro-phenyl]-amide hydrochloride]",0.045 µM,1.1 µM,
"COCC1(C(=O)Nc2ccc(F)c([C@]3(C)COCC(N)=N3)c2)CC1 [Example 86, 1-methoxymethyl-cyclopropanecarboxylic acid [3-((R)-5-amino-3-methyl-3,6-dihydro-2H-[1,4]oxazin-3-yl)-4-fluoro-phenyl]-amide formate]",3.6 µM,> 10 µM,
"CC(C)CC(=O)Nc1ccc(F)c([C@]2(C)COCC(N)=N2)c1 [Example 95, N-[3-((R)-5-amino-3-methyl-3,6-dihydro-2H-[1,4]oxazin-3-yl)-4-fluoro-phenyl]-3-methyl-butyramide formate]",3.6 µM,> 10 µM,
"C[C@@]1(c2cc(NC=O)ccc2F)COCC(N)=N1 [Example 97, N-[3-((R)-5-Amino-3-methyl-3,6-dihydro-2H-[1,4]oxazin-3-yl)-4-fluoro-phenyl]-formamide formate]",1.76 µM,> 10 µM,
